Residues, ends and D or L forms follow the SMILES beside them.
Columns and labels:
[1] = system: primary human airway epithelia; assay: Epithelial integrity (TER, FITC-Dextran diffusion) and toxicity; format: cell-based
Protocol: In panel (A), epithelial cells were seeded on transwells and treated with a single dose of PBS, TAT-scramble or TAT-PDZ3 (TAT-CAR^Ex8 or TAT-ESAM) peptides (50 μM) daily for 16 days. Transepithelial resistance (TER) was measured every other day for 16 days to indicate the amount of epithelial polarization. […] Each condition represents the average of 4 replicates. (B) FITC-Dextran 4 kDa diffusion across treated epithelia in the absence of EDTA. […] (C) Pre-treatment with EDTA to disrupt tight junctions increased Dextran 4 kDa permeability in all conditions. FITC-Dextran 4 kDa was added to the apical membrane compartment and Dextran present in the basolateral media was measured and quantified. […] FITC-Dextran 70 kDa was added to the apical membrane compartment and Dextran in the basolateral media was measured and quantified.
(A) Primary human airway epithelial cells were treated with a single dose of PBS, TAT-scramble (50 μM), or TAT-PDZ1 peptides (50 μM) each day for 14 days. Transepithelial resistance (TER) was taken every other day for 14 days. No change in TER was noticeable upon treatment with TAT-PDZ1 peptides indicating similar epithelium formation. (B) FITC-Dextran 4 kDa diffusion across treated epithelia in the presence or absence of EDTA. There was no difference in Dextran 4 kDa diffusion among treatments indicating intact epithelial tight junctions. Pre-treatment with EDTA increased Dextran 4 kDa permeability similarly in all conditions indicating disruption of epithelial tight junctions. FITC-Dextran 4 kDa was added to the apical membrane and the diffused Dextran was collected from the basolateral media and measured. (C) There was no difference in Dextran 70 kDa diffusion among treatments indicating intact epithelial tight junctions. FITC-Dextran 70 kDa was added to the apical membrane and the diffused Dextran was collected from the basolateral media and measured.

CAR^Ex8 [2] = assay: Western blot of CAR^Ex8 in well differentiated primary human airway epithelia; format: cell-based; conditions: versus control
Description: (A) Western blotting from human airway epithelia treated with either TAT-scramble or TAT-PDZ1 peptides (TAT-E6 or TAT-NET1). […] Actin was used to confirm equal protein loading.

CAR^Ex8 [3] = assay: Western blot / apical surface biotinylation of CAR^Ex8 in MDCK epithelia; format: cell-based, canine
Description: (§1) MAGI-1 PDZ binding peptides (BP) can alter CAR^EX8 apical protein levels and AdV infection. […] A) MAGI-1 PDZ1 can rescue CAR^Ex8 expression while PDZ3 decreases CAR^EX8 expression. B) Peptides that bind to PDZ3 will prevent degradation of CAR^Ex8 and rescue CAR^EX8 expression and C) peptides that bind to PDZ1 will prevent rescue of CAR^Ex8 and […] CAR^Ex8 degradation. D) Apical surface-specific biotinylation of polarized MDCK epithelia treated with PDZ1 binding peptide decreases apical levels of CAR^EX8 while PDZ3 binding peptide increase apical CAR^EX8, relative to control. E) Treatment with PDZ3 binding peptide increases while PDZ1 binding peptide decreases AdV5-β-Gal entry as determined by qPCR for viral genomes (Vg). F) AdV5-Cre infection turns cells from red (uninfected) to green (infected) in tDT-mouse airway epithelial cells. Baseline infection in control-peptide treated airway epithelia show an even distribution of uninfected red cells and infected green cells.
(§2) (A) Western blotting of MDCK cells treated with either TAT-CAR^Ex8 or control TAT-CAR^Ex8-AA. […] (C) Polarized MDCK cells were treated with either TAT-CAR^Ex8 or TAT-ESAM and the apical surface subjected to apical surface biotinylation, followed by neutravidin pull down and Western blot of apical surface proteins. […] (E) TAT-cell permeable peptides interrupt MAGI-1-CAR^Ex8 interactions. […]

AdV [4] = assay: qPCR of AdV viral genome in primary human airway epithelia; format: cell-based; conditions: versus control
MAGI-1 PDZ1 domain = MAGI-1 PDZ1 domain (Homo sapiens, UniProt Q96QZ7); assay: Ligand binding assay with purified MAGI-1 PDZ1 domain
Sequence of MAGI-1 PDZ1 domain (Q96QZ7 472-554 limits assumed): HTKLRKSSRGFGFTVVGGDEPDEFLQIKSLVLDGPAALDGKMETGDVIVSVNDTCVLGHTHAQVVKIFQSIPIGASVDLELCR
Description: Ligand binding assay between TAT-ESAM and purified MAGI-1 PDZ1 or PDZ-3.
MAGI-1 PDZ3 domain was used as a control.

AdV [5] = assay: qPCR of AdV viral genome (transduction/entry) in MDCK epithelia; format: cell-based, canine; conditions: versus control
Description: as §1, §2

CAR^Ex8 [6] = assay: Immunocytochemistry of CAR^Ex8 in polarized MDCK cells; format: cell-based, canine; conditions: 50 μM
Description: CAR^Ex8 is localized mainly at the apical surface of polarized MDCK cells. […] Red (CAR^Ex8), Green (MAGI-1, a junctional protein), Blue (nucleus, DAPI). 60× oil immersion confocal microscopy.
(A) CAR^Ex8 (red) localizes mainly at the apical membrane of MDCK epithelial cells (see xz section). […] 60× oil immersion confocal microscopy.

SMILES	Transepithelial resistance (TER) ([1]; 50 μM daily for 16 days, versus control)	FITC-Dextran 70 kDa diffusion across epithelia ([1]; TAT-PDZ3 peptide study)	FITC-Dextran 4 kDa diffusion across epithelia ([1]; absence of EDTA, TAT-PDZ3 peptide study)	Toxicity to epithelia ([1]; primary human airway epithelia)	CAR^Ex8 protein level (Western blotting) (CAR^Ex8 [2])	CAR^Ex8 protein level (Western blotting) (CAR^Ex8 [3])	AdV genomic transduction / entry (qPCR of viral genome) (AdV [4])	Kd (MAGI-1 PDZ1 domain)	AdV genomic transduction / entry (qPCR of viral genome) (AdV [5])	Effect on junctional staining of MAGI-1 (CAR^Ex8 [6])	Immunolocalization of endogenous CAR^Ex8 (CAR^Ex8 [6])
CC(C)C[C@H](NC(=O)[C@H](CO)NC(=O)CNC(=O)[C@H](C)NC(=O)[C@H](CCC(N)=O)NC(=O)[C@H](CO)NC(=O)[C@H](CCC(N)=O)NC(=O)[C@H](C)NC(=O)[C@H](CCC(N)=O)NC(=O)[C@@H]1CCCN1C(=O)[C@@H]1CCCN1C(=O)[C@H](CCCNC(=N)N)NC(=O)[C@H](CCCNC(=N)N)NC(=O)[C@H](CCCNC(=N)N)NC(=O)[C@H](CCC(N)=O)NC(=O)[C@H](CCCNC(=N)N)NC(=O)[C@H](CCCNC(=N)N)NC(=O)[C@H](CCCCN)NC(=O)[C@H](CCCCN)NC(=O)[C@H](CCCNC(=N)N)NC(=O)CN)C(=O)N[C@H](C(=O)O)C(C)C [TAT-ESAM] (H-GRKKRRQRRRPPQAQSQAGSLV-OH; N-terminus and C-terminus assumed)	No difference	no difference	no difference	no overt toxicity	–	–	–	–	–	–	–
CC(C)C[C@H](NC(=O)[C@H](CCC(N)=O)NC(=O)[C@@H](NC(=O)[C@H](CCC(=O)O)NC(=O)[C@H](CCCNC(=N)N)NC(=O)[C@H](CCCNC(=N)N)NC(=O)[C@@H](NC(=O)[C@H](CCCNC(=N)N)NC(=O)[C@H](CO)NC(=O)[C@H](CCC(N)=O)NC(=O)[C@@H]1CCCN1C(=O)[C@@H]1CCCN1C(=O)[C@H](CCCNC(=N)N)NC(=O)[C@H](CCCNC(=N)N)NC(=O)[C@H](CCCNC(=N)N)NC(=O)[C@H](CCC(N)=O)NC(=O)[C@H](CCCNC(=N)N)NC(=O)[C@H](CCCNC(=N)N)NC(=O)[C@H](CCCCN)NC(=O)[C@H](CCCCN)NC(=O)[C@H](CCCNC(=N)N)NC(=O)CN)[C@@H](C)O)[C@@H](C)O)C(=O)O [TAT-E6] (H-GRKKRRQRRRPPQSRTRRETQL-OH; N-terminus and C-terminus assumed)	–	–	–	–	marked decrease	marked decrease	significant decrease	15 ± 4 nM	significant decrease	minor to no effect	delocalization of CAR^Ex8 to the nuclear compartment
